Results reported in US20090075987A1, “ALKYLACETYLENE SUBSTITUTED ACYLTRYPTOPHANOLS” (priority 2007, published 2009).

Molecular target: T1, human FSH receptor (Homo sapiens, UniProt P23945)
T1 construct: expressed in transfected cells; host or cells: CHO cells (hFSHR clone 16)
T1 sequence (P23945 18-695): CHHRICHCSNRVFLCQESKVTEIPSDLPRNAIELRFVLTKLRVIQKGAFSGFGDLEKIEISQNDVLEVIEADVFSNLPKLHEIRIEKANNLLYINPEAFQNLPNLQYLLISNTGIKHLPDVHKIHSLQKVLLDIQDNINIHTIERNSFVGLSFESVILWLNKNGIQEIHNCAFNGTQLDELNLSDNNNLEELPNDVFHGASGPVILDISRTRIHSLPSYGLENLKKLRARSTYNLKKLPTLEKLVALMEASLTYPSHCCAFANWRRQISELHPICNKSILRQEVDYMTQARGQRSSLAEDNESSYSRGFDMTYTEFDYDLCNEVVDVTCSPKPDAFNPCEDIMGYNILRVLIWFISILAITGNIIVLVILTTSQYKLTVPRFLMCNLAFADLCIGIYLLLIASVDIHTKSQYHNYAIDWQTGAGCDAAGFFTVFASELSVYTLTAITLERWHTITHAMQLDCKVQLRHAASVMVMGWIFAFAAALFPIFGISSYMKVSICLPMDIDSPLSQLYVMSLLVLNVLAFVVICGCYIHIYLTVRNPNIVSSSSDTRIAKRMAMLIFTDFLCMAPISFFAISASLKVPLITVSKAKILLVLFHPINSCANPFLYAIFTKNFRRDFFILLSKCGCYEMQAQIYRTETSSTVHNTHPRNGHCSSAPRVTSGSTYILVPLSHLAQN
Assay: HTRF assay for measuring cAMP in cells
Type: cell-based
Conditions: hFSHR clone 16 cells (CHO cells stably transfected with the human FSH receptor); in the presence of 1e-9 mol/l hFSH; 37° C. for 2 h; read-out: IC50 (FSH-antagonistic effect in the HTRF assay)
Protocol: HTRF Assay for Measuring cAMP in Cells
The method is based on a competitive immunoassay between native cAMP, which has been produced by the cells, and cAMP which is labelled with XL665. The tracer binding was visualized by a monoclonal antibody, anti-cAMP labelled with cryptate [HTRF=homogeneous time-resolved fluorescence].
The specific signal is inversely proportional to the cAMP concentration of the samples employed.
The 665 nm/620 nm fluorescence ratio was evaluated.
The following material was used: 96-well plates for the tissue culture, 96-well plates with black edge and black base (e.g. Fluotrac 600 from Greiner), 96-well plates for the substance dilutions of polypropylene and cAMP Femtomolar (4000 wells Kit, CIS Bio International # 62AM1PEC).
The following reagents were used: BSA (bovine serum albumin) Fraction V protease-free, IBMX (3-isobutyl-1-methylxanthine), hFSH (human follicle stimulating hormone), Triton X-100 analytical grade, potassium fluoride analytical grade, G 418 (Geneticin) and Accutase.
Buffer 1 (washing and testing buffer) contained PBS, 1 mM CaCl2, 1 mM MgCl2, 0.2% glucose; 0.1% BSA, 1 mM IBMX. Buffer 2 (2× lysis buffer) contained 1% Triton X-100 in PBS (without CaCl2 and MgCl2). Buffer 3 (assay buffer) contained 50 mM potassium phosphate buffer (pH 7.0); 800 mM potassium fluoride; 0.2% BSA (always added fresh).
On day 1, the cells were seeded in 96-well plates (3×10^4 cells per well hFSHR clone 16 cells (CHO cells stably transfected with the human FSH receptor in 150 μl of medium). The next day, test substance dilutions were made up. For this purpose, all the substances were diluted in ice-cold buffer 1 (with or without hFSH), and the substance dilutions were placed on ice until applied to the cells.
The cell supernatant was then aspirated off, and the cells were washed 2× with 200 μl of buffer 1. The cells were treated with 60 μl of the appropriate substance concentrations at 37° C. for 2 h. The cells were then lysed with 60 μl of buffer 2 (put onto the supernatant) (on a plate shaker at RT for 30 min).
The test conjugates (XL-665 and anti-cAMP cryptate) were diluted in buffer 3 in accordance with the manufacturers' information. The actual mixture for measurement was pipetted into a black 96-well plate (in each case 15 μl of the cell lysate diluted with 35 μl of buffer 1; firstly 25 μl of XL-665 conjugate were pipetted and, after 10 min, 25 μl of the anti-cAMP cryptate were added). This is followed by incubation at RT for 90 minutes. The measurement was carried out in a PheraStar (BMG).
Tissue Culture Conditions
1) hFSHr clone 16 Ham's F12 • PSG • 10% FCS • 700 μg/ml G 418 (Geneticin) from PAA.
Dose-effect curve (hFSH) for the human receptor: 1e-8, 3e-9, 1e-9, 3e-10, 1e-10, 3e-11, 1e-11, 3e-12 mol/l.
The test substances were employed in suitable dilutions in the absence (test for agonism) and in the presence of 1e-9 mol/l hFSH.
The values of the well ratio were averaged and then entered directly in SigmaPlot versus the concentrations. The maximum and minimum values were determined for each plate, and half the difference is to be regarded as IC50.

Row | Structure (SMILES) | IC50 [nM]
1 | CC(C)Oc1ccc(C#CCN2CCS(=O)(=O)CC2)cc1C(=O)N[C@@H](CO)Cc1c[nH]c2ccccc12 [Example 5, 5-[3-(1,1-Dioxo-1-lambda*6*-thiomorpho-lin-4-yl)-prop-1-ynyl]-N-[(R)-2-hydroxy-1-(1H-indol-3-ylmethyl)-ethyl]-2-isopropoxy-benzamide] | 4500
2 | CC(C)Oc1ccc(C#CCCCO)cc1C(=O)N[C@@H](CO)Cc1c[nH]c2ccccc12 [Example 8, N-[(R)-1-Hydroxy-methyl-2-(1H-indol-3-yl)-ethyl]-5-(5-hydroxy-pent-1-ynyl)-2-iso-propoxy-benzamide] | 500
3 | CNC(=O)N(C)CC#Cc1ccc(OC(C)C)c(C(=O)N[C@@H](CO)Cc2c[nH]c3ccccc23)c1 [Example 10, 5-[3-(1,3-Dimethyl-ureido)-prop-1-ynyl]-N-[(R)-1-hydroxymethyl-2-(1H-indol-3-yl)-ethyl]-2-isopropoxy-benzamide] | 6000
4 | Cc1ccc(NC(=O)NCC#Cc2ccc(OC(C)C)c(C(=O)N[C@@H](CO)Cc3c[nH]c4ccccc34)c2)cc1 [Example 7, N-[(R)-1-Hydroxy-methyl-2-(1H-indol-3-yl)-ethyl]-2-isopropoxy-5-[3-(3-p-tolyl-ureido)-prop-1-ynyl]-benzamide] | 200
5 | CC(C)Oc1ccc(C#CC(C)(C)C)cc1C(=O)N[C@@H](CO)Cc1c[nH]c2ccccc12 [Example 3, 5-(3,3-Dimethyl-but-1-ynyl)-N-[(R)-1-hydroxy-methyl-2-(1H-indol-3-yl)-ethyl]-2-isopropoxy-benzamide] | 600
